Laboratory results published in US12161694B2, “Methods and compositions for regulating innate lymphoid cell inflammatory responses” (The Broad Institute, Inc., priority 2017, dated 2024).
“Also recorded” adds a separate entry of the source. Where no end group is shown, it is not given here.

Tested on: Th2 cells
Experiment: T cell in vitro culture (Th2 differentiation), Il5/Il13 qPCR
Type: cell-based, mouse
Settings: Th2 cells cultured with or without NMU 1 μg/ml
Experimental: Quantitative real-time PCR. RNA was isolated using RNeasy Plus Mini Kit (Qiagen) and reverse transcribed to cDNA with iScript cDNA Synthesis Kit (Bio-Rad). Gene expression was analyzed by quantitative real-time PCR on a ViiA7 System (Thermo Fisher Scientific) using TaqMan Fast Advanced Master Mix (Thermo Fisher Scientific) with the following primer/probe sets: IL-5 (Mm00439646_m1), IL-13 (Mm00434204_m1), IL-17RB (Mm00444709_m1), Nmur1 (Mm04207994 m1), Nmur2 (Mm00600704_m1), and β-Actin (Applied Biosystems). Expression values were calculated relative to β-Actin detected in the same sample by duplex qPCR.
T cell in vitro culture. CD4^+ T cells were isolated as described previously^4 and sorted for naive T cells (CD4^+ CD62L^+ CD44^low) on a FACS Aria. Naive T cells were cultured in the presence of plate-bound anti-CD3 (1 μg/ml; Bio X Cell) and anti-CD28 (1 μg/ml; Bio X Cell) antibodies. […]
Quantitative real-time PCR. […] Gene expression was analyzed by quantitative real-time PCR on a ViiA7 System (Thermo Fisher Scientific) using TaqMan Fast Advanced Master Mix (Thermo Fisher Scientific) with the following primer/probe sets: Il5 (Mm00439646_m1), Il13 (Mm00434204_m1), Il17rb (Mm00444709_m1), Nmur1 (Mm04207994_m1), Nmur2 (Mm00600704_m1), Nmu (Mm00479868_m1) and Actb (Applied Biosystems). Expression values were calculated relative to Actb detected in the same sample by duplex qPCR. […]

In the case of “Neuromedin U (FRVDEEFQSPFASQSRGYFLFRPRN-NH2; listed as Homo sapiens) [NMU, neuropeptide ligand of Nmur1 (US Biological)]”, the “Il5 and Il13 expression in Th2 cells” value is reported as “not observed; also recorded: similar; also recorded: did not affect; also recorded: does not alter”.
